Series [1] is described as follows: Potentiometric titration: dissociation constants of oxydiacetic acid in DMSO-water. The format is physicochemical. Conditions: 298.15 K. The procedure: (§1) Potentiometric titrations were performed in a 30-mL thermostated (298.15 ± 0.10 K) cell using the Cerko Lab System microtitration unit fitted with a 5-mL Hamilton’s syringe, a pH combined electrode (Schott–BlueLine 16 pH type) and a self-made measuring cell equipped with a magnetic stirrer. The temperature was controlled using the Lauda E100 circulation thermostat. In aqueous solutions, the electrode was calibrated according to IUPAC recommendations. In binary systems (10–50 % v/v DMSO:H2O), the electrode calibration was performed by the Gran’s method using the GLEE program. For this purpose, the HClO4 solution was titrated with tetrabutylammonium hydroxide (Bu4NOH) solution both at the same mole fraction of organic solvent (10–50 (v/v%) DMSO). The syringe was calibrated by a weight method. The double distilled water of conductivity approximately 0.18 μS/cm was used throughout for the preparation of aqueous solutions. Other reagents used in the experiments were purchased from Sigma-Aldrich. They were as follows: VOSO4 (≥99.99 % trace metals basis), Co(NO3)2·6H2O (ACS reagent, ≥99 %), Ni(NO3)2·6H2O (99.999 %) and 2,2′-oxydiacetic acid (H2ODA, 98 %). All the solutions were prepared immediately before measurements. The compositions of the titrand solutions used in the experiments were as follows: (a) 2 mM Ni^2+ (Co^2+ or VO^2+), 5 mM H2ODA, 5 mM HClO4, (b) 2.5 mM H2ODA (for binary systems). The solutions (Vo = 5.0 mL) were potentiometrically titrated with the standardized 0.098 M NaOH solution or with the standardized 0.025 M Bu4NOH solution (in binary systems) in the pH range from 2.5 to 11.0. The titrant was added to the titrand in increments of 0.01 mL, with a pause of 60 s. Each titration was repeated at least three times in order to check the reproducibility of the data. The stability constants of the complexes were determined using the Hyperquad2008 program. The concentration distribution of various complex species existing in the solution as a function of pH was obtained using the HySS program.
To assess the influence of DMSO as a co-solvent on the stability of the complexes, its effect on the dissociation constants of H2ODA was investigated potentiometrically in the first instance. The representative pH-titration curves for oxydiacetic acid at 298.15 K in 0, 30 and 50 % (v/v) DMSO-water binary systems are shown in Fig. 2, whereas the calculated dissociation constants are collected in Table 3. In the calculations, the ionization constants of the solvents, pK s, were taken from the literature.

Series [2] in a line: Potentiometric titration: stability constants of the complexes. The format is physicochemical. The note with it: PT, 298.15 K, aqueous. On the procedure:
as §1
The equilibrium constants defined by Eqs. (1) and (2):1 pM+qL+rH=MpLqHr 2 βpqr=MpLqHr/M^pL^qH^r (where M is VO^2+, Co^2+ or Ni^2+, L denotes the oxydiacetate ion, H is the proton and p, q, r are stoichiometric coefficients for the reaction) were refined by least-squares calculations using the Hyperquad2008 (version 5.2.19) computer program. For the oxovanadium(IV) system, the formation of the hydroxo complexes of VO(IV) were taken into account in the calculations of the stability constants. The following formation constants were taken from the literature and were fixed: logβ 10–1 = −5.94, logβ 20–2 = −6.95 and logβ 10–3 = −18. The equilibrium models presented in Table 2 have given the best fitting of the calculated data to the experimental ones.

Series [3] concerns Bacillus subtilis. Kind of series: Disc diffusion test. It counts as cell-based. The note with it: B. subtilis, 100 μg/disc. On the procedure:
(§2) The antimicrobial activity of complex compounds was assessed against Bacillus subtilis, Escherichia coli, Enterococcus faecalis, Pseudomonas aeruginosa, Staphylococcus aureus, Staphylococcus epidermidis (all strains were from the collection of the Department of Molecular Biology, University of Gdańsk). All bacteria were cultured in the Luria-Bertani (LB) broth at 310.15 K in the air with shaking. LB agar plates were prepared by the supplementation of LB broth with the 1.5 % bacteriological agar. Stock solutions of complex compounds were freshly prepared in the LB broth at the concentration of 25 mg/mL. Aliquots of 0.05 mL of bacterial culture at the optical density at 600 nm of 0.1 (inoculum 5 × 10^6 cells per plate) were spread on LB agar plates. Sterile filter paper discs (of 6 mm diameter) were impregnated with solutions of complex compounds prepared in the deionized water at the following amounts: 0.1, 0.2, 0.5 and 1.0 mg per disc and placed on agar plates. After an overnight incubation at 310.15 K, zones of bacterial growth inhibition were measured. Neomycin at the amount of 0.1 mg/disc was used as a control.
A general note: In agar diffusion tests the substance spreads into inoculated agar from a disc or well.

The test system of series [4] is Pseudomonas aeruginosa. Kind of series: Disc diffusion test. It counts as cell-based. Conditions: P. aeruginosa, 100 μg/disc. The procedure: as §2
Series [5] deals with Staphylococcus aureus. Put plainly: Disc diffusion test. It counts as cell-based. The note with it: S. aureus, 100 μg/disc. The procedure: as §2
The subject of series [6] is Staphylococcus epidermidis. Kind of series: Disc diffusion test. The format is cell-based. Conditions: S. epidermidis, 100 μg/disc. On the procedure:
as §2

Series [7] has as its system Enterococcus faecalis. Put plainly: Disc diffusion test. The format is cell-based. The note with it: E. faecalis, 100 μg/disc. On the procedure: as §2
For series [8], the system named is Escherichia coli. Put plainly: Disc diffusion test. It counts as cell-based. Conditions: E. coli, 100 μg/disc. The procedure:
as §2

Details of series [9]: method as in earlier work. Conditions: fixed in the calculations; cited from earlier work.
On the set-up of series [10]: method as in doi:10.1016/j.molstruc.2011.03.036, PMID 23047227. The note with it: cited from earlier work.

The structures appear in SMILES notation.

The values that follow come from article PMC4352194, “Physicochemical and Biological Properties of Oxovanadium(IV), Cobalt(II) and Nickel(II) Complexes with Oxydiacetate Anions” (Biological Trace Element Research, 2014).

`O=C(O)COCC(=O)O` [H2ODA, 2,2′-oxydiacetic acid]: the “pK a1 (H2ODA = HODA^− + H^+)” value is recorded as 2.90 (±0.05) in series [1] (DMSO 0 % v/v); 3.11 (±0.04) in series [1] (DMSO 10 % v/v); 3.28 (±0.02) in [1] (DMSO 20 % v/v); 3.42 (±0.04) in [1] (DMSO 30 % v/v); 3.61 (±0.03) in series [1] (DMSO 40 % v/v); 3.76 (±0.03) in series [1] (DMSO 50 % v/v). The “pK a2 (HODA^− = ODA^2− + H^+)” value in series [1] (DMSO 0 % v/v) is reported as 4.28 (±0.08); in series [1] (DMSO 10 % v/v), 4.52 (±0.02); in series [1] (DMSO 20 % v/v), 4.69 (±0.02); in series [1] (DMSO 30 % v/v) it was 4.91 (±0.02); in series [1] (DMSO 40 % v/v) it was 5.16 (±0.02); in [1] (DMSO 50 % v/v), 5.46 (±0.03). For the same compound, the “logβ 011 (LH)” value in series [2] (fitted in the M = Co^2+ system) is listed as 4.16 (±0.09); in series [2] (fitted in the M = Ni^2+ system), 4.12 (±0.01); in [2] (fitted in the M = VO^2+ system) it was 4.20 (±0.05). The “logβ 012 (LH2)” value is listed as 7.26 (±0.06) in [2] (fitted in the M = Co^2+ system), 6.97 (±0.01) in [2] (fitted in the M = Ni^2+ system) and 7.25 (±0.05) in series [2] (fitted in the M = VO^2+ system).

Consider `NC[C@@H]1O[C@H](O[C@H]2[C@@H](O)[C@H](O[C@@H]3[C@@H](O)[C@H](N)C[C@H](N)[C@H]3O[C@H]3O[C@H](CN)[C@@H](O)[C@H](O)[C@H]3N)O[C@@H]2CO)[C@H](N)[C@@H](O)[C@@H]1O` [Neo, Neomycin, reference compound], for which the “Zone of growth inhibition” value in [3] was found to be 21 mm; in [4] it was 17 mm; in series [5], 18 mm; in [6] it was 25 mm; in [7] it was 16 mm; in series [8], 15 mm.

Consider `[O]=[V+2]` [VO(IV)], for which, in series [9], the “logβ 10–1 (hydroxo complex formation constant)” value is given as −5.94, the “logβ 10–3 (hydroxo complex formation constant)” value is −18 and the “logβ 20–2 (hydroxo complex formation constant)” value is recorded as −6.95.

Take `Cc1ccncc1.O.O.O.O=C([O-])COCC(=O)[O-].[Cu+2]` [[Cu(ODA)(4-pic)(H2O)]∙2H2O]: the SOD activity entry in series [10] is recorded as “considerable SOD activity”.

Take `O.O.O.O.O.O=C([O-])COCC(=O)[O-].[Cu+2].c1ccc(-c2ccccn2)nc1` [[Cu(ODA)(bipy)(H2O)]∙4H2O]: the SOD activity result in series [10] is on record as “considerable SOD activity”.
